Conditions in all cases: exposure time: 90 min
Assay [1] has as its system 1531 (donor line of iPSC-derived cardiomyocytes). Briefly: POD (EC05) for increase in beat frequency (positive chronotrope) vs vehicle; higher = less potent (higher point of departure). The method, boiled down:
(§1)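 Human iPSC-derived cardiomyocytes from 16 donors, dye-loaded for Ca2+, were treated for 90 min at 37 °C at final concentrations of 0.1, 1, 10 and 100 µM in 0.5% DMSO. Ca2+ flux was measured on a FLIPR Tetra before and after treatment. Hierarchical Bayesian Hill fitting of vehicle-normalised beat frequency, decay-to-rise ratio or peak frequency yielded donor-specific points of departure. Thresholds: 5% change, or 95% loss for peak frequency.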

Assay [2] deals with 1392 (donor line of iPSC-derived cardiomyocytes). The description is as above. The method, boiled down: as §1
The test system of assay [3] is 1083 (donor line of iPSC-derived cardiomyocytes). The description is as above. In a few lines:
as §1

Assay [4] has as its system 30171 (donor line of iPSC-derived cardiomyocytes). The description is as above. The method, boiled down:
as §1

For assay [5], the system named is 30145 (donor line of iPSC-derived cardiomyocytes). The description is as above. In a few lines: as §1
Assay [6] relates to 1516 (donor line of iPSC-derived cardiomyocytes). The assay is described as above. The method, boiled down:
as §1

The subject of assay [7] is 11235 (donor line of iPSC-derived cardiomyocytes). The description is as above. In a few lines: as §1
In assay [8] the test system is 1518 (donor line of iPSC-derived cardiomyocytes). The assay is described as above. The method, boiled down:
as §1

For assay [9], the system named is 1565 (donor line of iPSC-derived cardiomyocytes). The assay is described as above. The method, boiled down:
as §1

Assay [10] deals with 1118 (donor line of iPSC-derived cardiomyocytes). The description is as above. In a few lines: as §1
Assay [11] deals with 1535 (donor line of iPSC-derived cardiomyocytes). The assay is described as above. In a few lines: as §1
Assay [12] has as its system 1368 (donor line of iPSC-derived cardiomyocytes). The assay is described as above. In a few lines:
as §1

For assay [13], the system named is 1309 (donor line of iPSC-derived cardiomyocytes). Described as above. The method, boiled down: as §1
Assay [14] relates to 20032 (donor line of iPSC-derived cardiomyocytes). The description is as above. The method, boiled down:
as §1

Assay [15] concerns 1434 (donor line of iPSC-derived cardiomyocytes). The description is as above. In a few lines:
as §1

Assay [16] deals with 20084 (donor line of iPSC-derived cardiomyocytes). Described as above. In a few lines: as §1
In assay [17] the test system is 1531. The assay is described as follows: POD (EC05) for increase in Ca2+ transient decay-to-rise ratio (QT prolongation) vs vehicle; higher = less potent (higher point of departure). In a few lines: as §1
Assay [18] relates to 1516. Described as above. The method, boiled down:
as §1

In assay [19] the test system is 1518. The description is as above. In a few lines:
as §1

Assay [20] concerns 1118. The assay is described as follows: POD (EC05) for decrease in beat frequency (negative chronotrope) vs vehicle; higher = less potent (higher point of departure). In a few lines:
as §1

As to `O=S(=O)(O)C(F)(F)C(F)(F)C(F)(F)C(F)(F)C(F)(F)C(F)(F)C(F)(F)C(F)(F)F` [Perfluorooctanesulfonic_acid], the POD vs vehicle in assay [1], in [2], in [3], in assay [4], in assay [5] and in [6] was > 100 µM throughout. Further, the POD vs vehicle in assay [7], in assay [8], in [9], in assay [10], in [11] and in assay [12] was > 100 µM in each case. Besides, the POD vs vehicle in [13], in assay [14], in assay [15], in assay [16], in assay [17] and in [18] was > 100 µM throughout. In addition, the POD vs vehicle in assay [19] is > 100 µM; in [20], 10.6 µM.
In the case of `OCCC(F)(F)C(F)(F)C(F)(F)C(F)(F)C(F)(F)C(F)(F)C(F)(F)C(F)(F)F` [8:2 Fluorotelomer alcohol], the POD vs vehicle in assay [1], in assay [2], in assay [3], in assay [4], in [5] and in [6] was > 100 µM throughout. Moreover, the POD vs vehicle in assay [7], in assay [8], in assay [9], in assay [10], in assay [11] and in [12] was > 100 µM in each case. For the same compound, the POD vs vehicle in [13], in [14], in assay [15], in assay [16], in [17] and in assay [18] was > 100 µM each time. In addition, the POD vs vehicle in assay [19] and in assay [20] was > 100 µM in each case.
As for `O=C(O)C(F)(F)C(F)(F)C(F)(F)C(F)(F)C(F)(F)F` [Perfluorohexanoic_acid], the POD vs vehicle in assay [1], in assay [2], in [3], in [4], in [5] and in assay [6] was > 100 µM in each case. Besides, the POD vs vehicle in assay [7], in assay [8], in assay [9], in assay [10], in assay [11] and in assay [12] was > 100 µM each time. Moreover, the POD vs vehicle in assay [13], in assay [14], in assay [15], in [16], in assay [17] and in assay [18] was > 100 µM in each case. Moreover, the POD vs vehicle in assay [19] and in assay [20] was > 100 µM in each case.
Consider `O=S(=O)(O)CCC(F)(F)C(F)(F)C(F)(F)C(F)(F)C(F)(F)C(F)(F)F` [6:2 Fluorotelomer sulfonic acid], for which the POD vs vehicle in assay [1], in assay [2], in [3], in [4], in assay [5] and in assay [6] was > 100 µM in each case. Further, the POD vs vehicle in assay [7], in assay [8], in [9], in assay [10], in assay [11] and in assay [12] was > 100 µM in each case. In addition, the POD vs vehicle in assay [13], in [14], in [15], in [16], in [17] and in assay [18] was > 100 µM each time. Moreover, the POD vs vehicle in assay [19] is > 100 µM; in assay [20], 12.8 µM.
With `O=C(O)CCC(F)(F)C(F)(F)C(F)(F)C(F)(F)C(F)(F)F` [2H,2H,3H,3H-Perfluorooctanoic_acid], the POD vs vehicle in assay [1], in [2], in [3], in assay [4], in assay [5] and in assay [6] was > 100 µM in each case. Further, the POD vs vehicle in assay [7], in [8], in assay [9], in [10], in assay [11] and in [12] was > 100 µM each time. Also, the POD vs vehicle in assay [13] was > 100 µM; in assay [14], > 100 µM; in [15] it was > 100 µM; in assay [16], > 100 µM; in assay [17], 17 µM; in assay [18], 43.9 µM. For the same compound, the results for the POD vs vehicle in assay [19] and in assay [20] were > 100 µM and 20 µM, respectively.
On to `O=C(O)C(F)(F)C(F)(F)OC(F)(F)F` [Perfluoro-3-methoxypropanoic_acid], for which the POD vs vehicle in assay [1], in assay [2], in [3], in [4], in assay [5] and in [6] was > 100 µM each time. Also, the POD vs vehicle in [7], in assay [8], in assay [9], in [10], in [11] and in [12] was > 100 µM throughout. In addition, the POD vs vehicle in assay [13], in assay [14], in assay [15], in assay [16], in assay [17] and in [18] was > 100 µM throughout. For the same compound, the POD vs vehicle in [19] and in [20] was > 100 µM each time.

The record behind these values is the supplement of paper PMC11368000.
